Laboratory results taken from patent US7084268B1, “Carbapenem compound crystals and interjection preparations” (Eisai Co., Ltd., priority 1999, dated 2006).
Where “and” joins values, the source holds several entries; their conditions need not be identical. Equal entries are not always repeated. Structures can show the parent of a compound that is named as a salt.

How the values were obtained:
Type in all cases: physicochemical
[1] = Effect of degasification of the air in a vial and/or replacement by nitrogen (storage of powdery charged preparations); settings: for HPLC impurity, mean / content of residual carbapenem compound, mean: N=3
Protocol: As the monohydrate crystals, the powdery charged preparation of the novel carbapenem hydrochloride crystals (25 mg/vial) obtained in the method in Example 2-3 (replacement by nitrogen), the powdery charged preparation (25 mg/vial) subjected to replacement by oxygen in place of replacement by nitrogen in Example 2-3, and the powdery charged preparation (25 mg/vial) not subjected to replacement in Example 2-2 were stored at 60° C. for 5 days (N=3) and then measured for their color difference (ΔE), water content, powdery x-ray diffraction pattern, content of residual carbapenem and HPLC impurities. As the trihydrate crystals, the powdery charged preparation of the novel carbapenem hydrochloride crystals (25 mg/vial) obtained by the method (replacement by nitrogen) in Example 1-9 and the powdery charged preparation (25 mg/vial) not subjected to replacement in Example 1-8 were stored at 40° C. for 1 month and then measured for their color difference (ΔE), water content and content of residual carbapenem. The color difference was evaluated by a color difference meter (ZE-200, Nippondenso Co., Ltd.); the water content by a Karl-Fisher moisture meter (CA-05, Mitsubishi Kagaku Kogyo); the powdery X-ray diffraction under the method and conditions in Example 1-1 or 2-1; and the content of residual carbapenem and HPLC impurities by high performance liquid chromatography (Shimadzu Corporation). The color difference (ΔE) is a parameter indicative of a change in the color of the outward appearance of crystals, and its higher value indicates a greater coloration change than at an initial stage (just after production).

[2] = Storage of crystals in bottles without caps at various relative humidity, with or without oxygen absorbent; settings: for water content (hygroscopicity): 25° C., 2 weeks, listed as monohydrate crystals, monohydrochloride monohydrate
Protocol: The novel carbapenem hydrochloride crystals were weighed in 25 mL wide-mouthed glass bottles (30 mg/bottle), and in the bottles without caps, the monohydrate was stored for 1 week at 40° C. at a relative humidity of 0%, 19.2%, 53% and 75%, and the trihydrate was stored for 2 weeks at 25° C. at a relative humidity of 11%, 33%, 51%, 75% and 93%. Then, the crystals were measured for their color difference (ΔE), water content, powdery X-ray diffraction pattern, and content of residual carbapenem. The monohydrate was also examined in the presence or absence of an oxygen absorbent (trade name: Ageless, produced by Mitsubishi Gas Chemical Co., Ltd.) during storage at each relative humidity. The oxygen absorbent makes oxygen-free conditions under which the preparation is placed.

[3] = Color difference after degasification of vial at various pressures and replacement by nitrogen; settings: 60° C., n = 6
Protocol: As the monohydrate, the powdery charged preparations for injection of the novel carbapenem crystals (25 mg/vial) obtained by degasification of the air in the vial at 100, 10, 1, 0.1 and 0.01 hPa (hectopascal) respectively and subsequent replacement by nitrogen according to the method in Example 2-3 (replacement by nitrogen) were stored at 60° C. for 1 or 4 weeks (N=6) and then measured for their color difference (ΔE). The oxygen concentrations in the preparations in vials degasified at 100, 10, 1, 0.1, 0.01 hPa (hectopascal) were measured by an oxygen analyzer (RO-101, Iizima Kogyo). As the trihydrate, the powdery charged preparations of the novel carbapenem hydrochloride crystals (25 mg/vial) obtained in the method in Example 1-9 (replacement by nitrogen) were degasified in the same manner, stored at 80° C. for 1 week (N=6) and then measured for their color difference (ΔE). As the control, the powdery charged preparation of the novel carbapenem hydrochloride crystals (25 mg/vial) subjected to neither degasification nor replacement by nitrogen was used.

[4] = Storage of crystals in bottles without caps at various relative humidity, with or without oxygen absorbent; settings: 25° C., 2 weeks, listed as monohydrate crystals, monohydrochloride monohydrate
[5] = 25 mg/vial, control (air), no replacement, stored 60° C. for 5 days
[6] = 25 mg/vial, control (air), no replacement, stored 60° C. for 5 days, monohydrochloride monohydrate
[7] = 25 mg/vial, gas for replacement nitrogen, stored 60° C. for 5 days
[8] = 25 mg/vial, gas for replacement nitrogen, stored 60° C. for 5 days, monohydrochloride monohydrate
[9] = 25 mg/vial, gas for replacement oxygen, stored 60° C. for 5 days
[10] = 25 mg/vial, gas for replacement oxygen, stored 60° C. for 5 days, monohydrochloride monohydrate
[11] = monohydrate powdery charged preparation, initial stage
[12] = 40° C., 1 week, relative humidity 0%, oxygen absorbent absence
[13] = 40° C., 1 week, relative humidity 0%, oxygen absorbent presence
[14] = 40° C., 1 week, relative humidity 19.2%, oxygen absorbent absence
[15] = 40° C., 1 week, relative humidity 19.2%, oxygen absorbent presence
[16] = 40° C., 1 week, relative humidity 53%, oxygen absorbent absence
[17] = 40° C., 1 week, relative humidity 53%, oxygen absorbent presence
[18] = 40° C., 1 week, relative humidity 75%, oxygen absorbent absence
[19] = 40° C., 1 week, relative humidity 75%, oxygen absorbent presence
[20] = monohydrate crystals, initial stage

SMILES: C[C@@H](O)[C@H]1C(=O)N2C(C(=O)O)=C(S[C@@H]3CN[C@H]([C@H](O)[C@@H]4CCNC4)C3)[C@H](C)[C@H]12 [monohydrate, (+)-(1R,5S,6S)-6-[(R)-1-Hydroxyethyl]-1-methyl-2-[(2S,4S)-2-[(3R)-pyrrolidine-3-yl-(R)-hydroxymethyl]pyrrolidine-4-yl]thio-1-carbapen-2-em-3-carboxylic acid monohydrochloride monohydrate]
- powdery X-ray diffraction pattern [1, 5]: no change
- HPLC impurity, mean [1, 5]: 0.63%
- content of residual carbapenem compound, mean [1, 5]: 98.40%
- HPLC impurity [1, 6]: 0.62% and 0.64%
- color difference (ΔE) [1, 6]: 10.48 and 11.21 and 10.41
- content of residual carbapenem compound [1, 6]: 98.6% and 98.1%
- water content [1, 6]: 5.87% and 5.93%
- powdery X-ray diffraction pattern [1, 7]: no change
- HPLC impurity, mean [1, 7]: 0.63%
- content of residual carbapenem compound, mean [1, 7]: 98.40%
- HPLC impurity [1, 8]: 0.63% and 0.64%
- color difference (ΔE) [1, 8]: 4.23 and 4.57 and 5.23
- water content [1, 8]: 5.80% and 5.78% and 5.77%
- powdery X-ray diffraction pattern [1, 9]: no change
- HPLC impurity, mean [1, 9]: 0.64%
- content of residual carbapenem compound, mean [1, 9]: 97.80%
- HPLC impurity [1, 10]: 0.63% and 0.64%
- color difference (ΔE) [1, 10]: 12.7 and 12.14 and 11.46
- content of residual carbapenem compound [1, 10]: 97.5% and 98.1% and 97.8%
- water content [1, 10]: 5.78% and 5.77% and 5.75%
- HPLC impurity [1, 11]: 1.03%
- water content [1, 11]: 5.99%
- water content (hygroscopicity) ([2]; relative humidity 33%): 5.6%
- water content (hygroscopicity) ([2]; relative humidity 51%): 5.9%
- color difference (ΔE) [2, 12]: 1.87
- content of residual carbapenem compound [2, 12]: 101.1%
- powdery X-ray diffraction pattern [2, 12]: no change
- water content [2, 12]: 5.08%
- color difference (ΔE) [2, 13]: 2.95
- content of residual carbapenem compound [2, 13]: 100.3%
- powdery X-ray diffraction pattern [2, 13]: no change
- water content [2, 13]: 5.31%
- color difference (ΔE) [2, 14]: 5.01
- content of residual carbapenem compound [2, 14]: 99.9%
- powdery X-ray diffraction pattern [2, 14]: no change
- water content [2, 14]: 6.18%
- color difference (ΔE) [2, 15]: 3.97
- content of residual carbapenem compound [2, 15]: 100.5%
- powdery X-ray diffraction pattern [2, 15]: no change
- water content [2, 15]: 5.72%
- color difference (ΔE) [2, 16]: 6.28
- content of residual carbapenem compound [2, 16]: 100.6%
- powdery X-ray diffraction pattern [2, 16]: no change
- water content [2, 16]: 6.17%
- color difference (ΔE) [2, 17]: 5.85
- content of residual carbapenem compound [2, 17]: 102.0%
- powdery X-ray diffraction pattern [2, 17]: no change
- water content [2, 17]: 6.29%
- color difference (ΔE) [2, 18]: 35.98
- content of residual carbapenem compound [2, 18]: 99.8%
- powdery X-ray diffraction pattern [2, 18]: no change
- water content [2, 18]: 6.60%
- color difference (ΔE) [2, 19]: 4.56
- content of residual carbapenem compound [2, 19]: 100.8%
- powdery X-ray diffraction pattern [2, 19]: no change
- water content [2, 19]: 6.43%
- HPLC impurity [2, 20]: 0.93%
- water content [2, 20]: 5.49%
- color difference (ΔE) ([3]; control: neither degasification nor replacement by nitrogen, 1 week): 7.37
- color difference (ΔE) ([3]; control: neither degasification nor replacement by nitrogen, 4 weeks): 14.94
- color difference (ΔE) ([3]; vial degasified at 0.01 hPa (oxygen concentration 0.24 ± 0.03%), replaced by nitrogen, 1 week): 3.11
- color difference (ΔE) ([3]; vial degasified at 0.01 hPa (oxygen concentration 0.24 ± 0.03%), replaced by nitrogen, 4 weeks): 4.91
- color difference (ΔE) ([3]; vial degasified at 0.1 hPa (oxygen concentration 0.21 ± 0.01%), replaced by nitrogen, 1 week): 2.28
- color difference (ΔE) ([3]; vial degasified at 0.1 hPa (oxygen concentration 0.21 ± 0.01%), replaced by nitrogen, 4 weeks): 4.98
- color difference (ΔE) ([3]; vial degasified at 1 hPa (oxygen concentration 0.24 ± 0.04%), replaced by nitrogen, 1 week): 2.62
- color difference (ΔE) ([3]; vial degasified at 1 hPa (oxygen concentration 0.24 ± 0.04%), replaced by nitrogen, 4 weeks): 4.51
- color difference (ΔE) ([3]; vial degasified at 10 hPa (oxygen concentration 0.29 ± 0.08%), replaced by nitrogen, 1 week): 2.40
- color difference (ΔE) ([3]; vial degasified at 10 hPa (oxygen concentration 0.29 ± 0.08%), replaced by nitrogen, 4 weeks): 5.69
- color difference (ΔE) ([3]; vial degasified at 100 hPa (oxygen concentration 3.01 ± 1.12%), replaced by nitrogen, 1 week): 2.85
- color difference (ΔE) ([3]; vial degasified at 100 hPa (oxygen concentration 3.01 ± 1.12%), replaced by nitrogen, 4 weeks): 8.02
- water content (hygroscopicity) ([4]; relative humidity 11%): 5.0%
- water content (hygroscopicity) ([4]; relative humidity 75%): 6.2%
- water content (hygroscopicity) ([4]; relative humidity 93%): 8.4%
